# Reference: patent US20200016159A1, “N3-CYCLICALLY SUBSTITUTED THIENOURACILS AND USE THEREOF” (Bayer Aktiengesellschaft, priority 2016, published 2020)
# Target: T1, human adenosine A2b receptor (Homo sapiens, UniProt P29275)
# T1 sequence (P29275 1-332): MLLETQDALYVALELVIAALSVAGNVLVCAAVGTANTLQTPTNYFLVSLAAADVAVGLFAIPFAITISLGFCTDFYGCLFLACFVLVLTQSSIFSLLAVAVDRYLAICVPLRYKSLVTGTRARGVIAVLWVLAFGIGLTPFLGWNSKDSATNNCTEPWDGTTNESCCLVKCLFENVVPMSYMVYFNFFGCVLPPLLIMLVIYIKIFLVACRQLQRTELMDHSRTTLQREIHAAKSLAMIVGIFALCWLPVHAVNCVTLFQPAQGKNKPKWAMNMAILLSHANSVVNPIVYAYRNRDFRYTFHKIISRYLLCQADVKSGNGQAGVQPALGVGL
# Test: Cellular in vitro reporter gene test for A2b receptor activity (antagonism of NECA)
# Type: cell-based
# Parameters: expressed in transfected cells; host or cells: CHO-K1 (Chinese hamster ovary) with CRE-luciferase reporter
# Details: recombinant CHO-K1 cells, CRE-luciferase reporter, co-incubation with EC50 concentration of NECA, 3 hours
# Description: The identification of selective antagonists of the human adenosine A2b receptor and the quantification of the efficacy and selectivity of the compounds according to the invention was carried out with the aid of recombinant cell lines for the human adenosine receptors A1, A2a, A2b and A3. These cell lines were originally derived from an ovarepithelial cell of the hamster (Chinese Hamster Ovary, CHO-K1, American Type Culture Collection, Manassas, Va. 20108, USA). In addition to the respective recombinantly expressed adenosine receptor for testing the efficacy at the A1, A2a and A2b receptors, the cell lines contain a reporter gene construct where expression of the firefly (Photinus pyralis) luciferase is under the control of a promoter which can be activated via intracellular signal cascades by stimulation of the receptors with the (not subtype-selective) adenosine receptor agonist NECA (5′-N-ethylcarboxamidoadenosine) [S. J. Hill, J. G. Baker, S. Rhees, Curr. Opin. Pharmacol. 1, 526-532 (2001)].
# In the case of the A2a and A2b cell lines, this is a minimal promoter having a plurality of cAMP-responsive elements (CRE). Stimulation of the Gs-coupled A2b or A2a receptors by NECA ultimately leads, via formation of cAMP, to CRE-dependent induction of luciferase expression, which is detected 3 hours after the start of the incubation with NECA using a detection solution in a suitable luminometer. For testing the antagonists, initially, in a pre-experiment, the concentration of NECA which, at the test day in question, results in half-maximum stimulation of luciferase expression (EC50 concentration) is determined. By joint incubation of this EC50 concentration of NECA with the substances to be tested, it is possible to determine their antagonistic activity.
# Table 1 below lists the IC50 values from the A2b receptor assay for individual working examples (in some cases as means of a plurality of independent individual determinations and rounded to two significant figures; it may also be the case here that various independent preparations of the respective working example have been used): […]
row,Compound,IC50
1,"CCCn1c(=O)n([C@H]2C[C@@H]2C)c(=O)c2c(C)c(Cn3nc[nH]c3=O)sc21 [Example 317, 5-Methyl-3-[(1S,2S)-2-methylcyclopropyl]-6-[(5-oxo-4,5-dihydro-1H-1,2,4-triazol-1-yl)methyl]-1-propylthieno[2,3-d]pyrimidine-2,4(1H,3H)-dione]",19 nM
2,"COCCn1c(=O)n([C@H]2C[C@@H](OC)C2)c(=O)c2c(C)c(CN3CCNC3=NC#N)sc21 [Example 160, [1-{[3-(cis-3-Methoxycyclobutyl)-1-(2-methoxyethyl)-5-methyl-2,4-dioxo-1,2,3,4-tetrahydrothieno[2,3-d]pyrimidin-6-yl]methyl}imidazolidin-2-ylidene]cyanamide]",200 nM
3,"COCCn1c(=O)n(C2(C)CC2)c(=O)c2c(C)c(CN3CCNC3=NC(=O)OC)sc21 [Example 72, Methyl [1-{[1-(2-methoxyethyl)-5-methyl-3-(1-methylcyclopropyl)-2,4-dioxo-1,2,3,4-tetrahydrothieno[2,3-d]pyrimidin-6-yl]methyl}imidazolidine-2-ylidene]carbamate]",15 nM
4,"Cc1c(Cn2[nH]ccc2=O)sc2c1c(=O)n(C1CC1C)c(=O)n2CCOC(F)(F)F (racemic) [Example 273, 5-Methyl-3-(2-methylcyclopropyl)-6-[(5-oxo-2,5-dihydro-1H-pyrazol-1-yl)methyl]-1-[2-(trifluoromethoxy)ethyl]thieno[2,3-d]pyrimidine-2,4(1H,3H)-dione]",67 nM
5,"Cc1c(CN2CCNC2=O)sc2c1c(=O)n(C1CC1C)c(=O)n2CC1CCOC1 (stereo not drawn) [Example 289, 5-Methyl-3-(2-methylcyclopropyl)-6-[(2-oxoimidazolidin-1-yl)methyl]-1-(tetrahydrofuran-3-ylmethyl)thieno[2,3-d]pyrimidine-2,4(1H,3H)-dione]",35 nM
6,"Cc1c(CN2CCNC2=O)sc2c1c(=O)n(C1CC1)c(=O)n2CC1CCCO1 (racemic) [Example 37, 3-Cyclopropyl-5-methyl-6-[(2-oxoimidazolidin-1-yl)methyl]-1-(tetrahydrofuran-2-ylmethyl)thieno[2,3-d]pyrimidine-2,4(1H,3H)-dione]",35 nM
7,"COC(=O)N=C1NCCN1Cc1sc2c(c1C)c(=O)n(C1CC1)c(=O)n2CCC(F)(F)F [Example 12, Methyl [1-{[3-cyclopropyl-5-methyl-2,4-dioxo-1-(3,3,3-trifluoropropyl)-1,2,3,4-tetrahydrothieno[2,3-d]pyrimidin-6-yl]methyl}imidazolidin-2-ylidene]carbamate]",4.2 nM
8,"Cc1c(CN2CCNC2=O)sc2c1c(=O)n(C1CC1C)c(=O)n2CCCF (racemic) [Example 90, 1-(3-Fluoropropyl)-5-methyl-3-(2-methylcyclopropyl)-6-[(2-oxoimidazolidin-1-yl)methyl]thieno[2,3-d]pyrimidine-2,4(1H,3H)-dione]",5.3 nM
9,"COCCn1c(=O)n(C2CCCC2)c(=O)c2c(C)c(CN3CCNC3=O)sc21 [Example 189, 3-Cyclopentyl-1-(2-methoxyethyl)-5-methyl-6-[(2-oxoimidazolidin-1-yl)methyl]thieno[2,3-d]pyrimidine-2,4(1H,3H)-dione]",40 nM
10,"Cc1c(CN2CCNC2=O)sc2c1c(=O)n([C@H]1C[C@@H]1C)c(=O)n2CC1COC1 [Example 285, 5-Methyl-3-[(1S,2S)-2-methylcyclopropyl]-1-(oxetan-3-ylmethyl)-6-[(2-oxoimidazoliddin-1-yl)methyl]thieno[2,3-d]pyrimidine-2,4(1H,3H)-dione]",4.1 nM
11,"Cc1c(CN2CCNC2=O)sc2c1c(=O)n([C@H]1C[C@@H]1C)c(=O)n2CC1CC1(F)F (single isomer, unassigned) [Example 251]",6.3 nM
12,"Cc1c(CN2CCNC2=O)sc2c1c(=O)n([C@H]1C[C@@H]1C)c(=O)n2CC1CC1(F)F (single isomer, unassigned) [Example 250]",1.1 nM
13,"COCCn1c(=O)n(C2CC2C(F)(F)F)c(=O)c2c(C)c(CN3CCNC3=O)sc21 (single isomer, unassigned) [Example 295, 1-(2-Methoxyethyl)-5-methyl-6-[(2-oxoimidazolidin-1-yl)methyl]-3-[2-(trifluoromethyl)cyclopropyl]thieno[2,3-d]pyrimidine-2,4(1H,3H)-dione]",120 nM
14,"Cc1c(Cn2nc[nH]c2=O)sc2c1c(=O)n(C1(C)CC1)c(=O)n2CC1CCC1 [Example 62, 1-(Cyclobutylmethyl)-5-methyl-3-(1-methylcyclopropyl)-6-[(5-oxo-4,5-dihydro-1H-1,2,4-triazol-1-yl)methyl]thieno[2,3-d]pyrimidine-2,4(1H,3H)-dione]",65 nM
15,"Cc1c(CN2CCNC2=O)sc2c1c(=O)n(C1CC1C)c(=O)n2CC1CCOC1 (single isomer, unassigned) [Example 290, 5-Methyl-3-(2-methylcyclopropyl)-6-[(2-oxoimidazolidin-1-yl)methyl]-1-(tetrahydrofuran-3-ylmethyl)thieno[2,3-d]pyrimidine-2,4(1H,3H)-dione]",270 nM
16,"Cc1c(Cn2nc[nH]c2=O)sc2c1c(=O)n(C1(C)CC1)c(=O)n2CC1CC1(F)F (racemic) [Example 66, 1-[(2,2-Difluorocyclopropyl)methyl]-5-methyl-3-(1-methylcyclopropyl)-6-[(5-oxo-4,5-dihydro-1H-1,2,4-triazol-1-yl)methyl]thieno[2,3-d]pyrimidine-2,4(1H,3H)-dione]",140 nM
17,"CO[C@H]1C[C@@H](n2c(=O)c3c(C)c(CN4CCNC4=NC#N)sc3n(CCC(F)(F)F)c2=O)C1 [Example 155, [1-{[3-(cis-3-Methoxycyclobutyl)-5-methyl-2,4-dioxo-1-(3,3,3-trifluoropropyl)-1,2,3,4-tetrahydrothieno[2,3-d]pyrimidin-6-yl]methyl}imidazolidin-2-ylidene]cyanamide]",56 nM
18,"COCCn1c(=O)n(C2CC2C)c(=O)c2c(C)c(CN3CCNC3=O)sc21 (racemic) [Example 94, 1-(2-Methoxyethyl)-5-methyl-3-(2-methylcyclopropyl)-6-[(2-oxoimidazolidin-1-yl)methyl]thieno[2,3-d]pyrimidine-2,4(1H,3H)-dione]",7.2 nM
19,"CCc1c(CN2CCNC2=O)sc2c1c(=O)n(C1(C)CC1)c(=O)n2CCC(F)(F)F [Example 218, 5-Ethyl-3-(1-methylcyclopropyl)-6-[(2-oxoimidazolidin-1-yl)methyl]-1-(3,3,3-trifluoropropyl)thieno[2,3-d]pyrimidine-2,4(1H,3H)-dione]",54 nM
20,"Cc1c(CN2CCNC2=O)sc2c1c(=O)n(C1CC1C)c(=O)n2C[C@H]1CCCO1 (stereo partly drawn) [Example 286, 5-Methyl-3-(2-methylcyclopropyl)-6-[(2-oxoimidazolidin-1-yl)methyl]-1-[(2R)-tetrahydrofuran-2-ylmethyl]thieno[2,3-d]pyrimidine-2,4(1H,3H)-dione]",17 nM
21,"Cc1c(Cn2[nH]ccc2=O)sc2c1c(=O)n(C1CC1C)c(=O)n2CCOC(F)(F)F (single isomer, unassigned) [Example 274, 5-Methyl-3-(2-methylcyclopropyl)-6-[(5-oxo-2,5-dihydro-1H-pyrazol-1-yl)methyl]-1-[2-(trifluoromethoxy)ethyl]thieno[2,3-d]pyrimidine-2,4(1H,3H)-dione]",86 nM
22,"CCC1CC1n1c(=O)c2c(C)c(Cn3nc[nH]c3=O)sc2n(CCOC)c1=O (single isomer, unassigned) [Example 304, 3-(2-Ethylcyclopropyl)-1-(2-methoxyethyl)-5-methyl-6-[(5-oxo-4,5-dihydro-H-1,2,4-triazol-1-yl)methyl]thieno[2,3-d]pyrimidine-2,4(1H,3H)-dione]",350 nM
23,"COC(=O)N=C1NCCN1Cc1sc2c(c1C)c(=O)n(C1CC1)c(=O)n2CC1CCCO1 (racemic) [Example 42, Methyl [1-{[3-cyclopropyl-5-methyl-2,4-dioxo-1-(tetrahydrofuran-2-ylmethyl)-1,2,3,4-tetrahydrothieno[2,3-d]pyrimidin-6-yl]methyl}imidazolidin-2-ylidene]carbamate]",10 nM
24,"Cc1c(CN2CCNC(=O)C2=O)sc2c1c(=O)n(C1CCCC1)c(=O)n2CCC(F)(F)F [Example 187, 3-Cyclopentyl-6-[(2,3-dioxopiperazin-1-yl)methyl]-5-methyl-1-(3,3,3-trifluoropropyl)thieno[2,3-d]pyrimidine-2,4(1H,3H)-dione]",19 nM
